Assays:
rLUJV/ZsG = test: microbe, parasite or virus in culture; type: cell-based, Lujo virus; settings: Mammarenavirus lujoense, Huh-7, read-out: Relative ZsG (%) Mean; for activity at 0.05 µM: 50 nM; for activity at 0.5 µM: 500 nM; for activity at 5 µM: 5000 nM
in vitro = settings: human

| Compound | activity at 0.05 µM (rLUJV/ZsG) | activity at 0.5 µM (rLUJV/ZsG) | activity at 5 µM (rLUJV/ZsG) | viability at 0.05 µM (in vitro) | viability at 0.5 µM (in vitro) | viability at 5 µM (in vitro) | CC50 (in vitro; CC50 (50% cell cytotoxicity concentration)) |
| --- | --- | --- | --- | --- | --- | --- | --- |
| Nc1nc(Cl)nc2c1ncn2[C@@H]1O[C@H](CO)[C@@H](O)[C@H]1O [2-chloroadenosine] | 124% | 133% | 99% | 98% | 105% | 103% | – |
| C[C@@]1(O)[C@H](O)[C@@H](CO)O[C@H]1n1ccc(N)nc1=O [2ʹ-C-methylcytidine] | 124% | 144% | 103% | 102% | 104% | 99% | – |
| C[C@@]1(O)[C@H](O)[C@@H](CO)O[C@H]1n1ccc(=O)[nH]c1=O [2ʹ-C-methyluridine] | 132% | 142% | 126% | 102% | 100% | 97% | – |
| CO[C@@H]1[C@H](O)[C@@H](CO)O[C@H]1n1ccc(N)nc1=O [2ʹ-O-methylcytidine] | 118% | 127% | 114% | 98% | 103% | 100% | – |
| CO[C@@H]1[C@H](O)[C@@H](CO)O[C@H]1n1ccc(=O)[nH]c1=O [2ʹ-O-methyluridine] | 122% | 130% | 110% | 97% | 100% | 96% | – |
| O=C1C=CN([C@@H]2O[C@H](CO)[C@@H](O)[C@H]2O)C(=O)C1 [3-deazauridine] | 108% | 105% | 111% | 103% | 96% | 99% | – |
| Nc1ncn([C@@H]2O[C@H](CO)[C@@H](O)[C@H]2O)c(=O)n1 [5-azacytidine] | 90% | 112% | 104% | 96% | 102% | 102% | – |
| [N-]=[N+]=Nc1cn([C@@H]2O[C@H](CO)[C@@H](O)[C@H]2O)c(=O)[nH]c1=O [5-azidouridine] | 121% | 119% | 113% | 104% | 100% | 104% | – |
| O=c1[nH]c(=O)n([C@@H]2O[C@H](CO)[C@@H](O)[C@H]2O)cc1Br [5-bromouridine] | 134% | 131% | 106% | 97% | 102% | 100% | – |
| O=c1[nH]c(=O)n([C@@H]2O[C@H](CO)[C@@H](O)[C@H]2O)cc1Cl [5-chlorouridine] | 122% | 142% | 103% | 100% | 103% | 99% | – |
| O=c1[nH]c(=O)n([C@@H]2O[C@H](CO)[C@@H](O)[C@H]2O)cc1F [5-fluorouridine] | 94% | 51% | 19% | 97% | 100% | 103% | – |
| Cc1cn([C@@H]2O[C@H](CO)[C@@H](O)[C@H]2O)c(=O)nc1N [5-methylcytidine] | 122% | 129% | 108% | 96% | 97% | 98% | – |
| O=c1cnn([C@@H]2O[C@H](CO)[C@@H](O)[C@H]2O)c(=S)[nH]1 [6-aza-2-thiouridine] | 134% | 139% | 112% | 104% | 96% | 103% | – |
| O=c1cnn([C@@H]2O[C@H](CO)[C@@H](O)[C@H]2O)c(=O)[nH]1 [6-azauridine] | 95% | 87% | 78% | 98% | 103% | 97% | – |
| Nc1ncnc2c1nnn2[C@@H]1O[C@H](CO)[C@@H](O)[C@H]1O [8-azaadenosine] | 118% | 121% | 6% | 98% | 103% | 47% | – |
| [N-]=[N+]=Nc1nc2c(N)ncnc2n1[C@@H]1O[C@H](CO)[C@@H](O)[C@H]1O [8-azidoadenosine] | 90% | 72% | 6% | 104% | 87% | 32% | – |
| COc1c(-c2ccc3cc(NS(C)(=O)=O)ccc3c2)cc(-n2ccc(=O)[nH]c2=O)cc1C(C)(C)C [ABT-333] | 131% | 111% | 129% | 99% | 96% | 104% | – |
| COc1ccc(-c2ccc3c(N4CCOC[C@@H]4C)nc(N4CCOC[C@@H]4C)nc3n2)cc1CO [AZD8055] | 48% | 7% | 3% | 86% | 52% | 45% | – |
| CC(C)(C)C(=O)OCOP(=O)(COCCn1cnc2c(N)ncnc21)OCOC(=O)C(C)(C)C [Adefovir dipivoxil] | 70% | 38% | 24% | 123% | 94% | 54% | – |
| CCCCc1oc2ccccc2c1C(=O)c1cc(I)c(OCCN(CC)CC)c(I)c1 [Amiodarone] | 80% | 60% | 3% | – | – | – | 13.6 ± 1.51 µM |
| N#CC1(c2ccc(NC(=O)c3cccnc3NCc3ccncc3)cc2)CCCC1 [Apatinib] | 91% | 67% | 47% | 113% | 119% | 95% | – |
| CCOC(=O)c1c(CSc2ccccc2)n(C)c2cc(Br)c(O)c(CN(C)C)c12 [Arbidol] | 77% | 65% | 40% | 135% | 139% | 109% | – |
| O=C1CCc2ccc(OCCCCN3CCN(c4cccc(Cl)c4Cl)CC3)cc2N1 [Aripiprazole] | 71% | 81% | 16% | 124% | 126% | 59% | – |
| O=C1C(O)=C([C@H]2CC[C@H](c3ccc(Cl)cc3)CC2)C(=O)c2ccccc21 [Atovaquone] | 108% | 90% | 74% | 129% | 134% | 115% | – |
| Nc1ncnc2c([C@@H]3N[C@H](CO)[C@@H](O)[C@H]3O)c[nH]c12 [BCX-4430] | 103% | 132% | 99% | 99% | 97% | 101% | – |

Source: article PMC8310135 (Viruses, 2021)
